Assay results published in the NIST ThermoML archive (doi:10.1016/j.tca.2012.12.008).

Assay: xn = mol fraction of the nth substance listed
Details: 101 kPa, Liquid; for viscosity: Capillary tube (Ostwald / Ubbelohde) method; for mass density: Vibrating tube method

CCCC(C)O (stereo not drawn) [pentan-2-ol] + CCC(C)=O
Details	mass density, 298.15 K [kg/m3]	mass density, 303.15 K [kg/m3]	mass density, 308.15 K [kg/m3]	mass density, 313.15 K [kg/m3]	viscosity, 298.15 K [mPa·s]	viscosity, 303.15 K [mPa·s]	viscosity, 308.15 K [mPa·s]	viscosity, 313.15 K [mPa·s]
x2 = 0	805.41	801.21	796.64	792.51	3.478	2.801	2.335	1.993
x2 = 0.0852	804.2	799.84	795.37	791.21	2.516	2.204	1.894	1.662
x2 = 0.1643	803.1	798.76	794.25	790.05	2.008	1.786	1.581	1.429
x2 = 0.2456	802.1	797.76	793.2	788.94	1.592	1.439	1.316	1.217
x2 = 0.3511	801	796.62	791.97	787.7	1.183	1.103	1.038	0.992
x2 = 0.4422	800.24	795.77	791.11	786.83	0.92	0.891	0.86	0.832
x2 = 0.5632	799.6	794.94	790.27	785.94	0.702	0.693	0.683	0.673
x2 = 0.6508	799.3	794.56	789.87	785.47	0.62	0.608	0.595	0.583
x2 = 0.7416	799.14	794.34	789.63	785.18	0.569	0.548	0.528	0.507
x2 = 0.8512	799.2	794.26	789.56	785.05	0.48	0.463	0.445	0.427
x2 = 0.941	799.31	794.39	789.76	785.17	0.428	0.407	0.385	0.364
